Where two headings read alike, the source gives them in different places.
Legend:
Format in all cases: cell-based
[1] = test system: HCV 1a RLuc cells (dicistronic genotype 1a H77 replicon, RLuc reporter); experiment: microbe, parasite or virus in culture; settings: Hepatitis C virus, read-out: 1a
In short: (§1)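 Renilla luciferase HCV replicon cells: dicistronic 1b Con1, 1a H77 or 2a JFH-1 replicons, or a JFH-1 chimera carrying J6 NS5A (M31 present). Compound in DMSO serial dilutions, 72 h incubation, then lysis and luciferase read. EC50 by non-linear regression.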

[2] = test system: HCV 1b RLuc cells (dicistronic genotype 1b Con1 replicon, RLuc reporter); experiment: microbe, parasite or virus in culture; settings: Hepatitis C virus, read-out: 1b (nM)
In short: as §1

[3] = test system: HCV 2a JFH-1 Rluc cells (dicistronic genotype 2a JFH-1 replicon, RLuc reporter); experiment: microbe, parasite or virus in culture; settings: Hepatitis C virus, read-out: 2a JFH
In short: as §1

[4] = test system: HCV 2b Rluc cells (NS5A chimeric genotype 2a JFH-1 replicon with genotype 2b MD2b-1 NS5A gene, M31 present); experiment: microbe, parasite or virus in culture; settings: Hepatitis C virus, read-out: 2b
In short: (§2)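 Replicon cells stably carrying the listed RLuc-encoding dicistronic replicons were seeded and treated with DMSO serial dilutions of compound (10 mM stocks) diluted into culture medium. After 72 h, cells were lysed and Renilla luciferase activity measured. EC50 was derived by non-linear regression.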

[5] = test system: HCV 3a RLuc cells (NS5A chimeric genotype 1b Con1 replicon with consensus genotype 3a NS5A gene); experiment: microbe, parasite or virus in culture; settings: Hepatitis C virus
In short: as §2

[6] = test system: HCV 4a Rluc cells (NS5A chimeric genotype 1b Con1 replicon with genotype 4a NS5A gene); experiment: microbe, parasite or virus in culture; settings: Hepatitis C virus, read-out: 4a
In short: as §2

[7] = test system: Q30R in genotype 1a NS5A, 1a Rluc replicon transfected into Huh-7 cured-51 cells; experiment: HCV replicon assay, resistance mutant 1a Q30R; settings: Hepatitis C virus, Huh-7, read-out: 1a Q30R
In short: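 Q30R introduced into genotype 1a H77 RLuc replicon by site-directed mutagenesis; replicon RNA transfected into Huh-7 cured-51 cells.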

[8] = test system: HCV 2a Rluc cells (NS5A chimeric genotype 2a JFH-1 replicon with genotype 2a J6 strain NS5A gene, M31 present); experiment: HCV replicon reporter assay, genotype 2a J6 (M31 present); settings: Hepatitis C virus, read-out: 2a J6
In short: as §1

[9] = genotype 2a JFH-1 RLuc replicon
[10] = read-out: 3a, genotype 3a NS5A chimeric replicon
[11] = read-out: 3a, genotype 3a replicon

Question: Which results are given for COC[C@H]1C[C@@H](c2nc3ccc4cc(-c5ccc6c(ccc7nc([C@@H]8C[C@H](C)CN8C(=O)[C@@H](NC(=O)OC)C(C)C)[nH]c76)c5)ccc4c3[nH]2)N(C(=O)[C@@H](NC(=O)OC)[C@@H](C)OC)C1 [Example 559]?
Answer: EC50 ([1]; genotype 1a H77 RLuc replicon): 0.001 to 0.999 nM; EC50 [2]: 0.08 nM; EC50 [3, 9]: 0.001 to 0.999 nM; EC50 [4]: 0.001 to 0.999 nM; EC50 [5, 10]: 0.001 to 0.99 nM; EC50 [6]: 0.001 to 0.99 nM; EC50 [7]: 0.001 to 0.999 nM; EC50 [8]: 0.001 to 0.999 nM

Question: COC[C@H]1C[C@@H](c2ncc(-c3ccc(-c4ccc5c(ccc6nc([C@@H]7CCCN7C(=O)[C@@H](NC(=O)OC)C(C)C)[nH]c65)c4)cc3)[nH]2)N(C(=O)[C@H](NC(=O)OC)c2ccccc2)C1 [Example 446] was tested. Which EC50 ([1]; genotype 1a replicon) did it give?
Answer: Its EC50 is 0.001 to 0.999 nM.

Question: What about the EC50 [2] of the same compound?
Answer: The EC50 was 0.03 nM.

Question: And the EC50 ([3]; genotype 2a JFH-1 replicon)?
Answer: The EC50 was 0.001 to 0.999 nM.

Question: What about the EC50 [4] of the same compound?
Answer: Its EC50 is 0.001 to 0.999 nM.

Question: And the EC50 [5, 11]?
Answer: Its EC50 is 0.001 to 0.99 nM.

Question: And the EC50 [6]?
Answer: Its EC50 is 0.001 to 0.99 nM.

Question: And the EC50 [7]?
Answer: Its EC50 is 0.001 to 0.999 nM.

Question: And the EC50 [8]?
Answer: Its EC50 is 0.001 to 0.999 nM.

Question: What does the source list for COC[C@H]1C[C@@H](c2nc3ccc4cc(-c5ccc6c(ccc7nc([C@@H]8C[C@H](C)CN8C(=O)[C@@H](NC(=O)OC)C(C)C)[nH]c76)c5)ccc4c3[nH]2)N(C(=O)[C@@H](NC(=O)OC)C2CCOCC2)C1 [Example 560]?
Answer: EC50 ([1]; genotype 1a H77 RLuc replicon): 0.001 to 0.999 nM; EC50 [2]: 0.092 nM; EC50 [3, 9]: 0.001 to 0.999 nM; EC50 [4]: 0.001 to 0.999 nM; EC50 [5, 10]: 0.001 to 0.99 nM; EC50 [6]: 0.001 to 0.99 nM; EC50 [7]: 0.001 to 0.999 nM; EC50 [8]: 0.001 to 0.999 nM

Question: Which results are given for COC(=O)N[C@H](C(=O)N1C[C@@H](C)C[C@H]1c1ncc(-c2ccc3c(c2)COc2cc4c(ccc5nc([C@@H]6C[C@H](C)CN6C(=O)[C@@H](NC(=O)OC)C(C)C)[nH]c54)cc2-3)[nH]1)C(C)C [Example 569]?
Answer: EC50 ([1]; genotype 1a H77 RLuc replicon): 0.001 to 0.999 nM; EC50 [2]: 0.024 nM; EC50 [3, 9]: 0.001 to 0.999 nM; EC50 [4]: 0.001 to 0.999 nM; EC50 [5, 10]: 0.001 to 0.99 nM; EC50 [6]: 0.001 to 0.99 nM; EC50 [7]: 0.001 to 0.999 nM; EC50 [8]: 0.001 to 0.999 nM

Question: What does the source list for COC(=O)N[C@H](C(=O)N1[C@@H]2C[C@@H]2C[C@H]1c1nc2ccc3cc4c(cc3c2[nH]1)OCc1cc(-c2cnc([C@@H]3CCCN3C(=O)[C@H](NC(=O)OC)c3ccccc3)[nH]2)ccc1-4)C(C)C [Example 536]?
Answer: EC50 ([1]; genotype 1a H77 RLuc replicon): 0.001 to 0.999 nM; EC50 [2]: 0.013 nM; EC50 [3, 9]: 0.001 to 0.999 nM; EC50 [4]: 0.001 to 0.999 nM; EC50 [5, 10]: 0.001 to 0.99 nM; EC50 [6]: 0.001 to 0.99 nM; EC50 [7]: 0.001 to 0.999 nM; EC50 [8]: 0.001 to 0.999 nM

Question: COC(=O)N[C@H](C(=O)N1CCC[C@H]1c1nc2ccc3cc4c(cc3c2[nH]1)OCc1cc(-c2cnc([C@@H]3CCCN3C(=O)[C@H](NC(=O)C3CC3)c3ccccc3)[nH]2)ccc1-4)C(C)C [Example 498] was tested. Which EC50 ([1]; genotype 1a H77 RLuc replicon) did it give?
Answer: The EC50 was 0.001 to 0.999 nM.

Question: And the EC50 [2]?
Answer: Its EC50 is 0.016 nM.

Question: What about the EC50 [3, 9] of the same compound?
Answer: Its EC50 is 0.001 to 0.999 nM.

Question: What about the EC50 [4] of the same compound?
Answer: Its EC50 is 0.001 to 0.999 nM.

Question: What about the EC50 [5, 10] of the same compound?
Answer: Its EC50 is 0.001 to 0.99 nM.

Question: And the EC50 [6]?
Answer: Its EC50 is 0.001 to 0.99 nM.

Question: And the EC50 [7]?
Answer: Its EC50 is 0.001 to 0.999 nM.

Question: And the EC50 [8]?
Answer: Its EC50 is 0.001 to 0.999 nM.

Question: With COC(=O)N[C@H](C(=O)N1CCC[C@H]1c1nc2ccc3cc(-c4ccc5c(ccc6nc([C@@H]7[C@H]8CC[C@H](C8)N7C(=O)[C@H](NC(=O)OC)c7ccccc7)[nH]c65)c4)ccc3c2[nH]1)C(C)C [Example 325] as the compound, how does the EC50 ([1]; genotype 1a replicon) read?
Answer: Its EC50 is 0.001 to 0.999 nM.

Question: What about the EC50 [2] of the same compound?
Answer: Its EC50 is 0.018 nM.

Question: And the EC50 ([3]; genotype 2a JFH-1 replicon)?
Answer: Its EC50 is 0.001 to 0.999 nM.

Question: What about the EC50 [4] of the same compound?
Answer: The EC50 was 1 to 44 nM.

Question: And the EC50 [5, 11]?
Answer: Its EC50 is 0.001 to 0.99 nM.

Question: What about the EC50 [6] of the same compound?
Answer: The EC50 was 0.001 to 0.99 nM.

Question: What about the EC50 [7] of the same compound?
Answer: Its EC50 is 1 to 44 nM.

Question: And the EC50 [8]?
Answer: Its EC50 is 0.001 to 0.999 nM.

Question: With COC(=O)N[C@H](C(=O)N1C[C@@H](C)C[C@H]1c1nc2ccc3cc4c(cc3c2[nH]1)OCc1cc(-c2cnc([C@@H]3CC[C@H](C)N3C(=O)[C@@H](NC(=O)OC)C(C)C)[nH]2)ccc1-4)C(C)C [Example 566] as the compound, how does the EC50 ([1]; genotype 1a H77 RLuc replicon) read?
Answer: Its EC50 is 0.001 to 0.999 nM.

Question: And the EC50 [2]?
Answer: Its EC50 is 0.009 nM.

Question: And the EC50 [3, 9]?
Answer: The EC50 was 0.001 to 0.999 nM.

Question: And the EC50 [4]?
Answer: The EC50 was 0.001 to 0.999 nM.

Question: What about the EC50 [5, 10] of the same compound?
Answer: The EC50 was 0.001 to 0.99 nM.

Question: What about the EC50 [6] of the same compound?
Answer: The EC50 was 0.001 to 0.99 nM.

Question: What about the EC50 [7] of the same compound?
Answer: Its EC50 is 0.001 to 0.999 nM.

Question: And the EC50 [8]?
Answer: Its EC50 is 0.001 to 0.999 nM.

Question: COCC(=O)N[C@@H](C(=O)N1C[C@@H](COC)C[C@H]1c1nc2ccc3cc(-c4ccc5c(ccc6nc([C@@H]7C[C@H](C)CN7C(=O)[C@@H](NC(=O)OC)C(C)C)[nH]c65)c4)ccc3c2[nH]1)c1ccccc1 [Example 550] was tested. Which EC50 ([1]; genotype 1a H77 RLuc replicon) did it give?
Answer: The EC50 was 0.001 to 0.999 nM.

Question: What about the EC50 [2] of the same compound?
Answer: Its EC50 is 0.013 nM.

Question: And the EC50 [3, 9]?
Answer: Its EC50 is 0.001 to 0.999 nM.

Question: And the EC50 [4]?
Answer: The EC50 was 0.001 to 0.999 nM.

Question: What about the EC50 [5, 10] of the same compound?
Answer: Its EC50 is 0.001 to 0.99 nM.

Question: And the EC50 [6]?
Answer: The EC50 was 0.001 to 0.99 nM.

Question: And the EC50 [7]?
Answer: The EC50 was 0.001 to 0.999 nM.

Question: And the EC50 [8]?
Answer: The EC50 was 0.001 to 0.999 nM.

From patent publication US10344019B2 (priority 2010, dated 2019)
